Experiment: Reverse phase HPLC, degradation products (purity), stability study
Type: physicochemical
Details: storage two months (eight weeks) at 4° C., 25° C. and 37° C.
Description: Reverse phase HPLC was used along with visual observations which were conducted at each time point to monitor any precipitation or cloudiness.
The formulations were incubated at 4° C., 25° C. and 37° C. and analyzed for a) degradation products, b) pH stability and c) formulation clarity.
Reverse phase HPLC was used to visualize degradation products.

C[C@H](CCC(=O)[O-])[C@H]1CCC2C3CC[C@@H]4C[C@H](O)CC[C@]4(C)C3C[C@H](O)[C@@]21C.[Na+] (stereo partly drawn) [sodium deoxycholate, sodium (4R)-4-((3R,5R,10S,12S,13R,17R)-3,12-dihydroxy-10,13-dimethylhexadecahydro-1H-cyclopenta[a]phenanthren-17-yl)pentanoate]
chemical degradation by reverse phase HPLC: no degradation

— US10071105B2, “Formulations of deoxycholic acid and salts thereof” (Kythera Biopharmaceuticals, Inc., priority 2009, dated 2018)
